Laboratory results from patent publication US20040014047A1, “Antisense modulation of LIM domain kinase 1 expression” (Isis Pharmaceuticals Inc., priority 2002, published 2004).
Strand notation (5' to 3'): a small letter for the sugar, then the base; units joined by * are phosphorothioate-linked, units joined directly phosphodiester-linked; [ ] holds rarer units or linkages, { } end groups; capitals alone tell only the bases. e = 2'-O-(2-methoxyethyl) (MOE); [5mC] = 5-methylcytosine; d = 2'-deoxy (DNA)

The substances below were run on human LIM domain kinase 1 mRNA (assay: Antisense inhibition of human LIM domain kinase 1 mRNA levels, quantitative real-time PCR, A549 cells (screen)). Conditions: real-time PCR, bound stated.
Assay type: cell-based
Procedure, shortened: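 A549 cells at 70% confluency treated with antisense oligonucleotides (all cytidines 5-methylcytidine), harvested 16-24 h later. LIMK1 mRNA measured by real-time RT-PCR with FAM/TAMRA probe, normalized to total RNA by RiboGreen; values are averages of two experiments.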

Inhibition of human LIM domain kinase 1 expression (text summary of Table 1), at least 65%:
atttccaagatccggtctcc (eA*eT*eT*eT*e[5mC]*d[5mC]*dA*dA*dG*dA*dT*d[5mC]*d[5mC]*dG*dG*eT*e[5mC]*eT*e[5mC]*e[5mC]; antisense) [ISIS 206184]
caggtgcaacaaagtagcgt (e[5mC]*eA*eG*eG*eT*dG*d[5mC]*dA*dA*d[5mC]*dA*dA*dA*dG*dT*eA*eG*e[5mC]*eG*eT; antisense) [ISIS 206164]
cattcttgttctcgcggacc (e[5mC]*eA*eT*eT*e[5mC]*dT*dT*dG*dT*dT*d[5mC]*dT*d[5mC]*dG*d[5mC]*eG*eG*eA*e[5mC]*e[5mC]; antisense) [ISIS 206204]
ccacctcccgcggaggaatc (e[5mC]*e[5mC]*eA*e[5mC]*e[5mC]*dT*d[5mC]*d[5mC]*d[5mC]*dG*d[5mC]*dG*dG*dA*dG*eG*eA*eA*eT*e[5mC]; antisense) [ISIS 206208]
ccaggtgagtgtgcaaggca (e[5mC]*e[5mC]*eA*eG*eG*dT*dG*dA*dG*dT*dG*dT*dG*d[5mC]*dA*eA*eG*eG*e[5mC]*eA; antisense) [ISIS 206230]
cctccagggagctatggacc (e[5mC]*e[5mC]*eT*e[5mC]*e[5mC]*dA*dG*dG*dG*dA*dG*d[5mC]*dT*dA*dT*eG*eG*eA*e[5mC]*e[5mC]; antisense) [ISIS 206210]
cgccatagcgggcccagtag (e[5mC]*eG*e[5mC]*e[5mC]*eA*dT*dA*dG*d[5mC]*dG*dG*dG*d[5mC]*d[5mC]*d[5mC]*eA*eG*eT*eA*eG; antisense) [ISIS 206176]
ctcagacccttgagttactg (e[5mC]*eT*e[5mC]*eA*eG*dA*d[5mC]*d[5mC]*d[5mC]*dT*dT*dG*dA*dG*dT*eT*eA*e[5mC]*eT*eG; antisense) [ISIS 206227]
ctctgggccacggcagagag (e[5mC]*eT*e[5mC]*eT*eG*dG*dG*d[5mC]*d[5mC]*dA*d[5mC]*dG*dG*d[5mC]*dA*eG*eA*eG*eA*eG; antisense) [ISIS 206209]
ctgctgcagccgtatgaaaa (e[5mC]*eT*eG*e[5mC]*eT*dG*d[5mC]*dA*dG*d[5mC]*d[5mC]*dG*dT*dA*dT*eG*eA*eA*eA*eA; antisense) [ISIS 206162]
ctggctgtccatgctcttga (e[5mC]*eT*eG*eG*e[5mC]*dT*dG*dT*d[5mC]*d[5mC]*dA*dT*dG*d[5mC]*dT*e[5mC]*eT*eT*eG*eA; antisense) [ISIS 206200]
cttcctctcccatacgttct (e[5mC]*eT*eT*e[5mC]*e[5mC]*dT*d[5mC]*dT*d[5mC]*d[5mC]*d[5mC]*dA*dT*dA*d[5mC]*eG*eT*eT*e[5mC]*eT; antisense) [ISIS 206169]
gacaggtttctgccgggcag (eG*eA*e[5mC]*eA*eG*dG*dT*dT*dT*d[5mC]*dT*dG*d[5mC]*d[5mC]*dG*eG*eG*e[5mC]*eA*eG; antisense) [ISIS 206190]
gcagctgctgctgcagccgt (eG*e[5mC]*eA*eG*e[5mC]*dT*dG*d[5mC]*dT*dG*d[5mC]*dT*dG*d[5mC]*dA*eG*e[5mC]*e[5mC]*eG*eT; antisense) [ISIS 206215]
gcagtgcccgcagtacagct (eG*e[5mC]*eA*eG*eT*dG*d[5mC]*d[5mC]*d[5mC]*dG*d[5mC]*dA*dG*dT*dA*e[5mC]*eA*eG*e[5mC]*eT; antisense) [ISIS 206179]
gcagtgcccgctgcaagagc (eG*e[5mC]*eA*eG*eT*dG*d[5mC]*d[5mC]*d[5mC]*dG*d[5mC]*dT*dG*d[5mC]*dA*eA*eG*eA*eG*e[5mC]; antisense) [ISIS 206231]
gcatcgcatgaccttcacct (eG*e[5mC]*eA*eT*e[5mC]*dG*d[5mC]*dA*dT*dG*dA*d[5mC]*d[5mC]*dT*dT*e[5mC]*eA*e[5mC]*e[5mC]*eT; antisense) [ISIS 206197]
gccattgatttccaagatcc (eG*e[5mC]*e[5mC]*eA*eT*dT*dG*dA*dT*dT*dT*d[5mC]*d[5mC]*dA*dA*eG*eA*eT*e[5mC]*e[5mC]; antisense) [ISIS 206185]
gctgctgcagccgtatgaaa (eG*e[5mC]*eT*eG*e[5mC]*dT*dG*d[5mC]*dA*dG*d[5mC]*d[5mC]*dG*dT*dA*eT*eG*eA*eA*eA; antisense) [ISIS 206224]
ggaattcttcacatctgggc (eG*eG*eA*eA*eT*dT*d[5mC]*dT*dT*d[5mC]*dA*d[5mC]*dA*dT*d[5mC]*eT*eG*eG*eG*e[5mC]; antisense) [ISIS 206182]
ggagtgaaagcacccagctg (eG*eG*eA*eG*eT*dG*dA*dA*dA*dG*d[5mC]*dA*d[5mC]*d[5mC]*d[5mC]*eA*eG*e[5mC]*eT*eG; antisense) [ISIS 206225]
ggcccagtagtccttcttgc (eG*eG*e[5mC]*e[5mC]*e[5mC]*dA*dG*dT*dA*dG*dT*d[5mC]*d[5mC]*dT*dT*e[5mC]*eT*eT*eG*e[5mC]; antisense) [ISIS 206174]
ggcgtgccattgatttccaa (eG*eG*e[5mC]*eG*eT*dG*d[5mC]*d[5mC]*dA*dT*dT*dG*dA*dT*dT*eT*e[5mC]*e[5mC]*eA*eA; antisense) [ISIS 206186]
ggtccttgcgctgggaggcc (eG*eG*eT*e[5mC]*e[5mC]*dT*dT*dG*d[5mC]*dG*d[5mC]*dT*dG*dG*dG*eA*eG*eG*e[5mC]*e[5mC]; antisense) [ISIS 206233]
gtcaacctcatgcactcgac (eG*eT*e[5mC]*eA*eA*d[5mC]*d[5mC]*dT*d[5mC]*dA*dT*dG*d[5mC]*dA*d[5mC]*eT*e[5mC]*eG*eA*e[5mC]; antisense) [ISIS 206163]
gtcacaacacctgcaggaga (eG*eT*e[5mC]*eA*e[5mC]*dA*dA*d[5mC]*dA*d[5mC]*d[5mC]*dT*dG*d[5mC]*dA*eG*eG*eA*eG*eA; antisense) [ISIS 206229]
gtctcggtggatgatgttca (eG*eT*e[5mC]*eT*e[5mC]*dG*dG*dT*dG*dG*dA*dT*dG*dA*dT*eG*eT*eT*e[5mC]*eA; antisense) [ISIS 206202]
gtggccctggctcagtcggg (eG*eT*eG*eG*e[5mC]*d[5mC]*d[5mC]*dT*dG*dG*d[5mC]*dT*d[5mC]*dA*dG*eT*e[5mC]*eG*eG*eG; antisense) [ISIS 206207]
gtttctgccgggcagagctg (eG*eT*eT*eT*e[5mC]*dT*dG*d[5mC]*d[5mC]*dG*dG*dG*d[5mC]*dA*dG*eA*eG*e[5mC]*eT*eG; antisense) [ISIS 206189]
tagcgggcccagtagtcctt (eT*eA*eG*e[5mC]*eG*dG*dG*d[5mC]*d[5mC]*d[5mC]*dA*dG*dT*dA*dG*eT*e[5mC]*e[5mC]*eT*eT; antisense) [ISIS 206175]
tcacggtgtgtcaccttgat (eT*e[5mC]*eA*e[5mC]*eG*dG*dT*dG*dT*dG*dT*d[5mC]*dA*d[5mC]*d[5mC]*eT*eT*eG*eA*eT; antisense) [ISIS 206195]
tccaggcatcgcatgacctt (eT*e[5mC]*e[5mC]*eA*eG*dG*d[5mC]*dA*dT*d[5mC]*dG*d[5mC]*dA*dT*dG*eA*e[5mC]*e[5mC]*eT*eT; antisense) [ISIS 206198]
tccttcttgcagaagagctg (eT*e[5mC]*e[5mC]*eT*eT*d[5mC]*dT*dT*dG*d[5mC]*dA*dG*dA*dA*dG*eA*eG*e[5mC]*eT*eG; antisense) [ISIS 206172]
tcgagggtcagctggagcag (eT*e[5mC]*eG*eA*eG*dG*dG*dT*d[5mC]*dA*dG*d[5mC]*dT*dG*dG*eA*eG*e[5mC]*eA*eG; antisense) [ISIS 206188]
tggatggaattcttcacatc (eT*eG*eG*eA*eT*dG*dG*dA*dA*dT*dT*d[5mC]*dT*dT*d[5mC]*eA*e[5mC]*eA*eT*e[5mC]; antisense) [ISIS 206183]
tgtccatgctcttgatgatg (eT*eG*eT*e[5mC]*e[5mC]*dA*dT*dG*d[5mC]*dT*d[5mC]*dT*dT*dG*dA*eT*eG*eA*eT*eG; antisense) [ISIS 206199]
ttcttccctccaggtgcaac (eT*eT*e[5mC]*eT*eT*d[5mC]*d[5mC]*d[5mC]*dT*d[5mC]*d[5mC]*dA*dG*dG*dT*eG*e[5mC]*eA*eA*e[5mC]; antisense) [ISIS 206166]
